“Also recorded” adds a separate entry of the source. Read-outs that look alike come from different tables or passages of the source.

Data set [1] has as its target T1, myosin light chain kinase (MLCK) (Gallus gallus, UniProt P11799).
T1 construct: chicken gizzard MLCK prepared as described; from tissue; host or cells: chicken gizzard
Nature of the data set: Reconstituted enzyme assay, MLCK. In kind it is biochemical, chicken. The procedure: (§1) [table] […] The rationale for using BV-2 cells in high throughput screening was the paucity of well-characterized human microglial cell lines, and the relevant activation responses and signaling pathways reflect those seen in human and rodent primary microglial cultures. Compounds were tested for their effects on NO accumulation in conditioned media of LPS-stimulated BV-2 cells by measurement of nitrite production by the Griess assay as a read-out for iNOS activity, as described previously. Stock solutions of compounds were prepared in dimethylsulfoxide (DMSO) or in water. When stock solutions were prepared in DMSO, control wells contained the same final concentration of DMSO as the compound-containing wells. […] Solutions of compounds for cell treatments were diluted to a 10× final concentration by dilution of stock solutions in αMEM media. […] Reconstituted enzyme assays were done as described s. The sources of protein kinases were: bovine heart PKA from Promega, rat brain PKC from Calbiochem, rat CaMKII from New England Biolabs, chicken gizzard MLCK prepared as described, and a p38 MAP kinase kit containing recombinant Xenopus p38-MAPK and its human substrate from Upstate Biotechnology. The catalytic domains of these protein kinases retain a high level of amino acid sequence identity across mammalian species, consistent with the lack of documented major differences across species for the in vitro catalytic activity of a given kinase.

Data set [2] has as its target protein kinase C (PKC). Nature of the data set: Reconstituted enzyme assay, PKC. Type of data set: biochemical, rat. The procedure: as §1
Data set [3] deals with T2, CaMKII (Rattus norvegicus, UniProt P11275).
T2 construct: purchased New England Biolabs
T2 sequence (P11275 1-325 limits assumed): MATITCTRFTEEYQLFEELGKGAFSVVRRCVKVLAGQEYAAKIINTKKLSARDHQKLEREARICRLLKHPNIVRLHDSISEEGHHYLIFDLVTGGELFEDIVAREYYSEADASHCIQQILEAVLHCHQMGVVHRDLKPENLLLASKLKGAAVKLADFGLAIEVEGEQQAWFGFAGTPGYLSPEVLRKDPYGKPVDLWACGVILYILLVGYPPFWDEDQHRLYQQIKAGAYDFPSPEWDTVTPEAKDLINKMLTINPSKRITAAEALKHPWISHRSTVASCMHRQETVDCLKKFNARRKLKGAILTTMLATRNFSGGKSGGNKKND
The data set is described as follows: Reconstituted enzyme assay, CaMKII. Type of data set: biochemical. Conditions: Table 6; read-out: Inhibition CAMKII. The procedure: as §1

Data set [4] deals with death associated protein kinase (DAPK) (Homo sapiens, UniProt P53355). The data set is described as follows: Enzyme assay, DAPK. Type of data set: biochemical. Conditions: for IC50: Table 6, read-out: Inhibition DAPK. The procedure:
Therefore, compound MW01-026Z was selected as a starting point for variations on component A (Table 6). […] However, none of the A variations appeared to improve the activity and selectivity profile of CompoundMW01-026Z. (For purposes of illustration, only, component G was maintained throughout as an acyl moiety, while component R2 was varied as shown. All such compositions are available using the synthetic techniques described herein. Enzyme assays were conducted per procedures described elsewhere herein.) A more comprehensive structure activity relationship is summarized in Table 7, below.
With reference to the compositions of Table 3 and the enzyme assay techniques described elsewhere herein, Table 7 provides structural activity relationships observed, in accordance with this invention.

Data set [5] has as its system Wistar rats at P7. The data set is described as follows: Hypoxia-ischemia induced brain damage, hemispheric weight. In kind it is in vivo. The source says:
Induction of hypoxia-ischemia in postnatal day seven (P7) rats. Hypoxic-ischemic injury in P7 rats was induced using the well-characterized method of unilateral carotid ligation followed by hypoxia. This age is approximately equivalent to the 34 week gestation human infant. Male and female Wistar rats at P7 were removed from the mother and anesthetized with halothane (3.5% for induction and 1.5% for maintenance) 50% oxygen-balance nitrogen delivered via facemask. The right common carotid artery was identified and gently separated from the vagus nerve. The vessel was ligated with double 6-0 silk sutures to ensure cessation of blood flow. […]
Animals were sacrificed by halothane overdose at 7 days after hypoxia. […] Differences in weight between the hypoxic-ischemic and control contralateral hemisphere were calculated for each animal using the formula: 100*(C−I)/C=% damage where I represents the weight of the ipsilateral and C the weight of the contralateral hemisphere.
Data Analysis. All data are expressed as mean±SEM. The degree of hypoxic-ischemic brain injury after treatment with drug or saline is expressed as the percentage of reduction in the tissue weight of the hemisphere ipsilateral to carotid ligation. This was calculated as a ratio of the right (ipsilateral, ischemic) to the left (contralateral, non-ischemic) hemispheric weights as described previously in the literature. […]

The subject of data set [6] is WT mice. Nature of the data set: Endotoxin (LPS)-mediated acute lung injury. Type of data set: in vivo, mouse. Particulars: 2.5 mg/kg IP 1 hour prior to LPS 10 mg/kg IP; 24 hours. The procedure:
To confirm the specific role of EC MLCK in the reduced susceptibility of KO mice to endotoxin-mediated lung injury, a representative composition of this invention was used to determine whether pharmacologic inhibition of MLCK would also reduce LPS-induced lung injury. (See, examples 25-26, below.) WT mice were treated with 2.5 mg/kg of a representative MLCK inhibitor (e.g., cpd MW01-022AZ) 1 hour prior to administration of LPS.
Endotoxin-mediated lung injury. LPS (Sigma, St. Louis, Mo.) (10 mg/kg) was administered via intraperitoneal (ip) injection. Animals were allowed to recover for 24 hours prior to determination of lung injury. Control animals received an equivalent volume of sterile saline.
[drawing 161] are shown to be comparatively selective (using assay procedures and data analyses previously described) for inhibition of MLCK and related enzymes such as Rho kinase, and are bioavailable in various other animal models of disease. […] The stimulus in this example was IP injection of 10 mg/kg body weight of the bacterial endotoxin, lipopolysaccharide (LPS). The treatment with MW01-022AZ represents a clinically relevant dose of a kinase inhibitor therapeutic based on prior art with other kinases. Other compositions of this invention, having the structural relationships described and/or illustrated above, can also be employed.
Histologic analysis of lung injury after LPS exposure. […]

Setting [7] is: Table 6, read-out: Inhibition MLCK.
Setting [8] is: Table 6, read-out: Inhibition KC.

Sequence of death associated protein kinase (DAPK) (P53355 whole entry, species assumed): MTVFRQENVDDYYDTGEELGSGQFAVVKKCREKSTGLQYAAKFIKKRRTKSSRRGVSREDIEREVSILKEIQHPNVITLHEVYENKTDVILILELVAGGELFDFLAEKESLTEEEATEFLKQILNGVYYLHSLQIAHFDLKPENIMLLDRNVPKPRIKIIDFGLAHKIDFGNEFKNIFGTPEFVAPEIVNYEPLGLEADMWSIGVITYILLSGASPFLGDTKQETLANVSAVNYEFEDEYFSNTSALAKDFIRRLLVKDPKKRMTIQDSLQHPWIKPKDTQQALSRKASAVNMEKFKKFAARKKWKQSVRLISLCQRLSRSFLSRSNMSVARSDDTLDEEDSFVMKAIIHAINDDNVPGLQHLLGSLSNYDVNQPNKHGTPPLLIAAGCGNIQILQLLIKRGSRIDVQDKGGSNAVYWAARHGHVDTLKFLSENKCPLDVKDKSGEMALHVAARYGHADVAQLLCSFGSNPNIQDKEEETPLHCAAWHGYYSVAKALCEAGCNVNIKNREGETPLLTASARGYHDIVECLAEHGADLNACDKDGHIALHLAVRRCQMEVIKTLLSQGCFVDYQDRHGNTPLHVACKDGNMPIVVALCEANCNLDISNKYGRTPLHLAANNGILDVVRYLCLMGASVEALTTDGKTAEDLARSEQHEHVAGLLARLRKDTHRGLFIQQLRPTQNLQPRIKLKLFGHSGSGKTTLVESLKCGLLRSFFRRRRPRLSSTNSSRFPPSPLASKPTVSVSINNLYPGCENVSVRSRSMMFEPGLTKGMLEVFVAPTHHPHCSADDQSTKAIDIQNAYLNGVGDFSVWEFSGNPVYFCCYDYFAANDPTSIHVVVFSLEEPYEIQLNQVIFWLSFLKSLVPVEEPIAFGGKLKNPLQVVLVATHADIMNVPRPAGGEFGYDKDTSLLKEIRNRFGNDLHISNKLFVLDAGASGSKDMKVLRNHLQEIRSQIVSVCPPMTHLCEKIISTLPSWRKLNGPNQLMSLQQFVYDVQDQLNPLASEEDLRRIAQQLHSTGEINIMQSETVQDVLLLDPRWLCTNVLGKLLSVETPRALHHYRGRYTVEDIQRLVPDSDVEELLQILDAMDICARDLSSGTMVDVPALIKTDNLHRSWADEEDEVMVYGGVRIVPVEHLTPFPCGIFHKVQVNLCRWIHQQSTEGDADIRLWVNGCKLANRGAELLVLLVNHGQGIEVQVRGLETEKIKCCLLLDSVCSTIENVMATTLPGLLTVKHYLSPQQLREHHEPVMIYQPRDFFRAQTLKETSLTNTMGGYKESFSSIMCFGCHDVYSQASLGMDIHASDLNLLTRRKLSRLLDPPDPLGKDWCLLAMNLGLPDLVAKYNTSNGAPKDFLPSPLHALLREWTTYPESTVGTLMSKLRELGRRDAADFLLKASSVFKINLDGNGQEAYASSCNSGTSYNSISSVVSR
T1 sequence (P11799 935-1906): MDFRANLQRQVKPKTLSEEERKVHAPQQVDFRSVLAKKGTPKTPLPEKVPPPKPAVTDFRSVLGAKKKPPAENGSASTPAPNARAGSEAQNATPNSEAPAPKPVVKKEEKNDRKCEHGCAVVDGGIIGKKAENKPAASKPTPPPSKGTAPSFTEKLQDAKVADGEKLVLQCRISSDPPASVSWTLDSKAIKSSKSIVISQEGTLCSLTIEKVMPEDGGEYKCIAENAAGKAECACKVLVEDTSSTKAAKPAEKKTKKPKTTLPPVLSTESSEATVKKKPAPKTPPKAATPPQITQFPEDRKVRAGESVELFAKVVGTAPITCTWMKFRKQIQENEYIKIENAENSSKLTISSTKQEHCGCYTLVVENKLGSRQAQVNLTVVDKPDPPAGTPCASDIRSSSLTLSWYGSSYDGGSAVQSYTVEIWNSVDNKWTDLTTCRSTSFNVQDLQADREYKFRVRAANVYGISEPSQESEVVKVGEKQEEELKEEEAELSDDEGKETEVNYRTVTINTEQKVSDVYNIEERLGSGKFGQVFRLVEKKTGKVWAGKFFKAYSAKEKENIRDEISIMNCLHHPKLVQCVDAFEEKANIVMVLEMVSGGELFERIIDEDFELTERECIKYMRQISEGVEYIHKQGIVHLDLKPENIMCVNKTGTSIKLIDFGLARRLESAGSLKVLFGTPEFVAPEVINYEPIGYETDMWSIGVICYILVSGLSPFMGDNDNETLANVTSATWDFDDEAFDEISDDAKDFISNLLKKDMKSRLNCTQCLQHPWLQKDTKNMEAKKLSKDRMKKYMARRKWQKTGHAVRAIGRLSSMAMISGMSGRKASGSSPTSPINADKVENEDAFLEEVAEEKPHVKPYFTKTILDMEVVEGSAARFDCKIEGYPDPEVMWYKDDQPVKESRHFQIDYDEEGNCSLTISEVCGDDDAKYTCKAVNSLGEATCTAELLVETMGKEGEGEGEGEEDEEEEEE

For the molecule `COc1ccc(S(=O)(=O)N(CCO)c2ccccc2CN(C)C/C=C/c2ccc(Cl)cc2)cc1` [Compound 5, KN93, reference compound], the IC50 in data set [1] (γ-[32P]-ATP, synthetic peptide substrate, mean ± SEM, read-out: IC50 MLCK) is 9.8 ± 0.7 µM; in data set [2] (γ-[32P]-ATP, synthetic peptide substrate, read-out: IC50 PKC), > 100 µM.

Regarding `N=c1ccc(-c2ccccc2)nn1CCCCCCCCCCC(=O)Nc1ccc(-c2ccccc2)nn1` [MW01-125AZ], the IC50 in data set [3] was > 100 µM; in data set [1] (setting [7]), > 100 µM; in data set [2] (setting [8]), 20 to 50 µM; in data set [4], 20 to 50 µM.

Turning to `N=c1cc2c(nn1CCCCCCCCCCC(=O)Nc1cc3c(nn1)-c1ccccc1CC3)-c1ccccc1CC2` [MW01-055V], the results for the IC50 in data set [1] (setting [7]), in data set [2] (setting [8]) and in data set [4] were < 20 µM, 50 to 100 µM and 50 to 100 µM, respectively.

For the molecule `N=c1cc2c(nn1CCCCCCCCCCC(=O)Nc1ccc(-c3ccccc3)nn1)-c1ccccc1CC2` [MW01-026Z], the IC50 was > 100 µM in data set [3], 20 to 50 µM in data set [1] (setting [7]), > 100 µM in data set [2] (setting [8]) and < 20 µM in data set [4]. Besides, in data set [4] (comparison among compounds), the “DAPK inhibitory activity” value is given as “most potent DAPK inhibitor”. Also, the “percent weight loss in the ischemic hemisphere compared to the contralateral hemisphere” value in data set [5] (5 mg/kg IP 1 hour after carotid ligation, 7 day recovery to P14, mean±SEM, n=7) is on record as 8.2±5.5%. Moreover, in data set [5] (5 mg/kg IP, versus vehicle group), the mortality entry is “no differences in mortality”.

Take `Cc1ccc(=N)n(CCCCCCCCCCC(=O)Nc2ccc(-c3ccccc3)nn2)n1` [MW01-031Z]: the IC50 in data set [3] is > 100 µM; in data set [1] (setting [7]), < 20 µM; in data set [4], > 100 µM.

`N=c1ccc(Cl)nn1CCCCCCCCCCC(=O)Nc1ccc(-c2ccccc2)nn1` [MW01-022AZ]: in data set [6], the “LPS-induced lung injury (histology)” value was “no evidence of lung injury; also recorded: close to normal”.
